Laboratory results: patent publication US4048431A, “Alkylated derivatives of antibiotic BM123γ” (American Cyanamid Company, priority 1975, dated 1977)

Tested on: Escherichia coli US311
Assay: in vivo protection of mice against lethal Escherichia coli US311 infection (single subcutaneous dose)
Parameters: species or system Escherichia coli US311 in Carworth Farms CF-1 mice
Settings: Carworth Farms CF-1 mice, about 20 gm., infected intraperitoneally with lethal dose of E. coli US311 (10^-3 TSP dilution of 5 hour TSP blood culture)
Method: These new substances show high in vivo antibacterial activity in mice against Escherichia coli US311 when administered by a single subcutaneous dose to groups of Carworth Farms CF-1 mice, weight about 20 gm., infected intraperitoneally with a lethal dose of this bacteria in a 10^- 3 trypticase soy broth TSP dilution of a 5 hour TSP blood culture. In Table VI below is set forth the in vivo activity of typical products of this invention (prepared from the indicated carbonyl reagents) against Escherichia coli US311 in mice. The activity is expressed in terms of the ED50 or the dose in mg./kg. of body weight required to protect 50% of the mice against E. coli.

Row | Substance | ED50 (dose required to protect 50% of the mice against E. coli)
1 | 1,2,2-dimethylhydroxypropyl-BM123γ | 0.18 mg./kg. of body weight
2 | 1,2,2-trimethylpropyl-BM123γ | < 0.12 mg./kg. of body weight
3 | 1,2,3-trimethylpentyl-BM123γ | 0.39 mg./kg. of body weight
4 | 1,2,4-trimethylheptyl-BM123γ | 0.37 mg./kg. of body weight
5 | 1,2-dimethyl-3-hydroxypropyl-BM123γ | 0.12 mg./kg. of body weight
6 | 1,2-dimethylbutyl-BM123γ | 0.12 mg./kg. of body weight
7 | 1,2-dimethylpentyl-BM123γ | 0.18 mg./kg. of body weight
8 | 1,2-dimethylpropyl-BM123γ | 0.19 mg./kg. of body weight
9 | 1,3,3-trimethylbutyl-BM123γ | 0.18 mg./kg. of body weight
10 | 1,3,3-trimethylcyclopentyl-BM123γ | 0.37 mg./kg. of body weight
11 | 1,3-dimethylbuten(-2-)yl-BM123γ | 0.3 mg./kg. of body weight
12 | 1,3-dimethylbutyl-BM123γ | < 0.12 mg./kg. of body weight
13 | 1,3-dimethylhexyl-BM123γ | 0.5 mg./kg. of body weight
14 | 1,3-dimethylpentyl-BM123γ | < 0.12 mg./kg. of body weight
15 | 1,4-dimethylpentyl-BM123γ | 0.12 mg./kg. of body weight
16 | 1,5-dimethylhexen(-4-)yl-BM123γ | 0.06 mg./kg. of body weight
17 | 1-(3-pyridyl)ethyl-BM123γ | 0.75 mg./kg. of body weight
18 | 1-(carbethoxymethyl)butyl-BM123γ | 0.75 mg./kg. of body weight
19 | 1-[5-norbornene(2)]ethyl-BM123γ | < 0.12 mg./kg. of body weight
20 | 1-[(dimethoxyphosphinyl)methyl]-hexyl-BM123γ | 0.3 mg./kg. of body weight
21 | 1-benzyl-4-piperidyl-BM123γ | 0.18 mg./kg. of body weight

Row | Substance | ED50 (dose required to protect 50% of the mice against E. coli)
22 | 1-carbomethoxy-2-carbomethoxyethyl-BM123γ | 0.75 mg./kg. of body weight
23 | 1-cyclohexylpropyl-BM123γ | 0.37 mg./kg. of body weight
24 | 1-cyclopentylethyl-BM123γ | 0.18 mg./kg. of body weight
25 | 1-cyclopropylethyl-BM123γ | 0.25 mg./kg. of body weight
26 | 1-ethyl-3-chloropropyl-BM123γ | 0.12 mg./kg. of body weight
27 | 1-ethylbutyl-BM123γ | 0.39 mg./kg. of body weight
28 | 1-ethylhexyl-BM123γ | 0.18 mg./kg. of body weight
29 | 1-ethylnonyl-BM123γ | 0.38 mg./kg. of body weight
30 | 1-ethyloctyl-BM123γ | 0.25 mg./kg. of body weight
31 | 1-ethylpentyl-BM123γ | 0.25 mg./kg. of body weight
32 | 1-ethylpropyl-BM123γ | 0.12 mg./kg. of body weight
33 | 1-isopropyl-4-methylpentyl-BM123γ | 0.39 mg./kg. of body weight
34 | 1-methyl-2,2-dimethoxyethyl-BM123γ | 0.5 mg./kg. of body weight
35 | 1-methyl-2-(2-chlorophenyl)ethyl-BM123γ | 0.37 mg./kg. of body weight
36 | 1-methyl-2-(2-methoxyphenyl)ethyl-BM123γ | 0.7 mg./kg. of body weight
37 | 1-methyl-2-(3-chlorophenyl)ethyl-BM123γ | 0.38 mg./kg. of body weight
38 | 1-methyl-2-(3-hydroxy-2-methylpropyl)-BM123γ | 0.18 mg./kg. of body weight
39 | 1-methyl-2-(3-methoxyphenyl)ethyl-BM123γ | 0.30 mg./kg. of body weight
40 | 1-methyl-2-(4-chlorophenyl)ethyl-BM123γ | 0.25 mg./kg. of body weight
41 | 1-methyl-2-(N,N-dimethylamino)propyl-BM123γ | 1.5 mg./kg. of body weight
42 | 1-methyl-2-(N,N-dipropylamino)-ethyl-BM123γ | 0.3 mg./kg. of body weight

Row | Substance | ED50 (dose required to protect 50% of the mice against E. coli)
43 | 1-methyl-2-(β-indolyl)ethyl-BM123γ | 0.12 mg./kg. of body weight
44 | 1-methyl-2-acetylethyl-BM123γ | 1.5 mg./kg. of body weight
45 | 1-methyl-2-carboethoxypropyl-BM123γ | 0.18 mg./kg. of body weight
46 | 1-methyl-2-chloro-2-carbethoxyethyl-BM123γ | 1.5 mg./kg. of body weight
47 | 1-methyl-2-cyclohexylethyl-BM123γ | 0.18 mg./kg. of body weight
48 | 1-methyl-2-cyclopenten(-2-)-yl-ethyl-BM123γ | < 0.12 mg./kg. of body weight
49 | 1-methyl-2-ethylbutyl-BM123γ | 0.18 mg./kg. of body weight
50 | 1-methyl-2-hydroxypropyl-BM123γ | 0.37 mg./kg. of body weight
51 | 1-methyl-2-methoxyethyl-BM123γ | 0.3 mg./kg. of body weight
52 | 1-methyl-2-o-[tolylcarbamoylethyl]-BM123γ | 0.25 mg./kg. of body weight
53 | 1-methyl-2-phenoxyethyl-BM123γ | 0.3 mg./kg. of body weight
54 | 1-methyl-2-phenylethyl-BM123γ | 0.18 mg./kg. of body weight
55 | 1-methyl-3,3-dimethoxypropyl-BM123γ | 0.75 mg./kg. of body weight
56 | 1-methyl-3-(4-hydroxyphenyl)ethyl-BM123γ | 0.3 mg./kg. of body weight
57 | 1-methyl-3-(N,N-diethylamino)propyl-BM123γ | 0.18 mg./kg. of body weight
58 | 1-methyl-3-methoxypropen(-2-)yl-BM123γ | > 2.0 mg./kg. of body weight
59 | 1-methyl-3-phenylpropen(-2-)yl-BM123γ | 0.25 mg./kg. of body weight
60 | 1-methyl-3-phenylpropyl-BM123γ | 0.38 mg./kg. of body weight
61 | 1-methyl-4-(N,N-diethylamino)butyl-BM123γ | 0.5 mg./kg. of body weight

Same assay, conditions: Carworth Farms CF-1 mice, about 20 gm., infected intraperitoneally with lethal dose of E. coli US311 (10^-3 TSP dilution of 5 hour TSP blood culture), listed as 1-methyl-2,2-dimethylpropyl-BM123γ

Row | Substance | ED50 (dose required to protect 50% of the mice against E. coli)
62 | 1,2,2-trimethylpropyl-BM123γ | 0.18 mg./kg. of body weight
